# Reference: patent publication US10617693B2, “Methods of treating and/or preventing actinic keratosis” (Athenex, Inc., priority 2017, dated 2020)
# Tested on: subjects with AK on the dorsal forearm
# Test: Phase 1 study KX01-AK-01-US: local skin reactions (investigator score 0 none to 4 severe; subject score 0 none to 3 severe) and adverse events
# [1] = Cohort 1: 0.5 mg/25 cm^2 QD x3 days, N=4
# [2] = Cohort 2: 2 mg/100 cm^2 QD x3 days, N=10
# [3] = Cohort 3: 0.5 mg/25 cm^2 QD x5 days, N=8
# [4] = Cohort 4: 2 mg/100 cm^2 QD x5 days, N=8
# Method: A Phase 1, single-center, safety, tolerability and pharmacokinetic study of KX-01 was performed on subjects with AK on the dorsal forearm. This was an open-label, uncontrolled, nonrandomized, sequential group clinical trial conducted at a single investigational center in the United States. The primary objectives of the study were to assess the safety, tolerability and pharmacokinetics of KX-01 in subjects with AK. The secondary objective was to evaluate the activity of KX-01 administered topically to the dorsal forearm in subjects with AK.
# KX-01 was administered topically on treatment days. All subjects were monitored for safety and tolerability that included LSRs, AEs, vital signs, clinical laboratory tests, ECGs, and physical examinations at baseline and at pre-defined time points during treatment and follow-up on days 1, 2, 3, 4, 5, 8, 10, 17, 31 and 45.
# LSRs (erythema, flaking/scaling, crusting, swelling, vesiculation/pustulation, erosion/ulceration) were assessed by the investigator or trained designee using a 4-point scale according to the protocol. The subject's assessment of the symptoms (stinging/burning, pruritus) associated with irritation of the treatment area was evaluated on a 4-point scale (0=none, 1=mild, 2=moderate, 3=severe). Subjects were queried for spontaneously reported AEs at each study visit before assessment of LSRs. LSRs and AEs were reported separately. All LSRs were to be followed to resolution or stabilization.
smiles,measurement,setting,value
O=C(Cc1ccc(-c2ccc(OCCN3CCOCC3)cc2)cn1)NCc1ccccc1 [KX-01],Day LSRs tended to peak,3-day treatment cohorts (Cohorts 1 and 2),~5 days
same,Day LSRs tended to peak,5-day treatment cohorts (Cohorts 3 and 4),~10 days
same,"Burning (subject-assessed) max score 0, number of subjects",[1],4
same,"Burning (subject-assessed) max score 1, number of subjects",[1],0
same,"Burning (subject-assessed) max score 2, number of subjects",[1],0
same,"Burning (subject-assessed) max score 3, number of subjects",[1],0
same,"Crusting max score 0, number of subjects",[1],4
same,"Crusting max score 1, number of subjects",[1],0
same,"Crusting max score 2, number of subjects",[1],0
same,"Crusting max score 3, number of subjects",[1],0
same,"Crusting max score 4, number of subjects",[1],0
same,"Erosions/ulcers max score 0, number of subjects",[1],4
same,"Erosions/ulcers max score 1, number of subjects",[1],0
same,"Erosions/ulcers max score 2, number of subjects",[1],0
same,"Erosions/ulcers max score 3, number of subjects",[1],0
same,"Erosions/ulcers max score 4, number of subjects",[1],0
same,"Erythema max score 0, number of subjects",[1],0
same,"Erythema max score 1, number of subjects",[1],2
same,"Erythema max score 2, number of subjects",[1],1
same,"Erythema max score 3, number of subjects",[1],1
same,"Erythema max score 4, number of subjects",[1],0
same,"Flaking/scaling max score 0, number of subjects",[1],0
same,"Flaking/scaling max score 1, number of subjects",[1],3
same,"Flaking/scaling max score 2, number of subjects",[1],0
same,"Flaking/scaling max score 3, number of subjects",[1],1
same,"Flaking/scaling max score 4, number of subjects",[1],0
same,"Pruritus (subject-assessed) max score 0, number of subjects",[1],3
same,"Pruritus (subject-assessed) max score 1, number of subjects",[1],1
same,"Pruritus (subject-assessed) max score 2, number of subjects",[1],0
same,"Pruritus (subject-assessed) max score 3, number of subjects",[1],0
same,"Stinging (subject-assessed) max score 0, number of subjects",[1],3
same,"Stinging (subject-assessed) max score 1, number of subjects",[1],1
same,"Stinging (subject-assessed) max score 2, number of subjects",[1],0
same,"Stinging (subject-assessed) max score 3, number of subjects",[1],0
same,"Swelling max score 0, number of subjects",[1],4
same,"Swelling max score 1, number of subjects",[1],0
same,"Swelling max score 2, number of subjects",[1],0
same,"Swelling max score 3, number of subjects",[1],0
same,"Swelling max score 4, number of subjects",[1],0
same,"Vesicles/pustules max score 0, number of subjects",[1],4
same,"Vesicles/pustules max score 1, number of subjects",[1],0
same,"Vesicles/pustules max score 2, number of subjects",[1],0
same,"Vesicles/pustules max score 3, number of subjects",[1],0
same,"Vesicles/pustules max score 4, number of subjects",[1],0
same,"Burning (subject-assessed) max score 0, number of subjects",[2],6
same,"Burning (subject-assessed) max score 1, number of subjects",[2],3
same,"Burning (subject-assessed) max score 2, number of subjects",[2],1
same,"Burning (subject-assessed) max score 3, number of subjects",[2],0
same,"Crusting max score 0, number of subjects",[2],5
same,"Crusting max score 1, number of subjects",[2],5
same,"Crusting max score 2, number of subjects",[2],0
same,"Crusting max score 3, number of subjects",[2],0
same,"Crusting max score 4, number of subjects",[2],0
same,"Erosions/ulcers max score 0, number of subjects",[2],10
same,"Erosions/ulcers max score 1, number of subjects",[2],0
same,"Erosions/ulcers max score 2, number of subjects",[2],0
same,"Erosions/ulcers max score 3, number of subjects",[2],0
same,"Erosions/ulcers max score 4, number of subjects",[2],0
same,"Erythema max score 0, number of subjects",[2],0
same,"Erythema max score 1, number of subjects",[2],6
same,"Erythema max score 2, number of subjects",[2],2
same,"Erythema max score 3, number of subjects",[2],2
same,"Erythema max score 4, number of subjects",[2],0
same,"Flaking/scaling max score 0, number of subjects",[2],1
same,"Flaking/scaling max score 1, number of subjects",[2],2
same,"Flaking/scaling max score 2, number of subjects",[2],1
same,"Flaking/scaling max score 3, number of subjects",[2],6
same,"Flaking/scaling max score 4, number of subjects",[2],0
same,"Pruritus (subject-assessed) max score 0, number of subjects",[2],4
same,"Pruritus (subject-assessed) max score 1, number of subjects",[2],6
same,"Pruritus (subject-assessed) max score 2, number of subjects",[2],0
same,"Pruritus (subject-assessed) max score 3, number of subjects",[2],0
same,"Stinging (subject-assessed) max score 0, number of subjects",[2],8
same,"Stinging (subject-assessed) max score 1, number of subjects",[2],2
same,"Stinging (subject-assessed) max score 2, number of subjects",[2],0
same,"Stinging (subject-assessed) max score 3, number of subjects",[2],0
same,"Swelling max score 0, number of subjects",[2],8
same,"Swelling max score 1, number of subjects",[2],2
same,"Swelling max score 2, number of subjects",[2],0
same,"Swelling max score 3, number of subjects",[2],0
same,"Swelling max score 4, number of subjects",[2],0
same,"Vesicles/pustules max score 0, number of subjects",[2],10
same,"Vesicles/pustules max score 1, number of subjects",[2],0
same,"Vesicles/pustules max score 2, number of subjects",[2],0
same,"Vesicles/pustules max score 3, number of subjects",[2],0
same,"Vesicles/pustules max score 4, number of subjects",[2],0
same,"Burning (subject-assessed) max score 0, number of subjects",[3],4
same,"Burning (subject-assessed) max score 1, number of subjects",[3],3
same,"Burning (subject-assessed) max score 2, number of subjects",[3],1
same,"Burning (subject-assessed) max score 3, number of subjects",[3],0
same,"Crusting max score 0, number of subjects",[3],1
same,"Crusting max score 1, number of subjects",[3],7
same,"Crusting max score 2, number of subjects",[3],0
same,"Crusting max score 3, number of subjects",[3],0
same,"Crusting max score 4, number of subjects",[3],0
same,"Erosions/ulcers max score 0, number of subjects",[3],8
same,"Erosions/ulcers max score 1, number of subjects",[3],0
same,"Erosions/ulcers max score 2, number of subjects",[3],0
same,"Erosions/ulcers max score 3, number of subjects",[3],0
same,"Erosions/ulcers max score 4, number of subjects",[3],0
same,"Erythema max score 0, number of subjects",[3],0
same,"Erythema max score 1, number of subjects",[3],2
same,"Erythema max score 2, number of subjects",[3],4
same,"Erythema max score 3, number of subjects",[3],2
same,"Erythema max score 4, number of subjects",[3],0
same,"Flaking/scaling max score 0, number of subjects",[3],0
same,"Flaking/scaling max score 1, number of subjects",[3],2
same,"Flaking/scaling max score 2, number of subjects",[3],2
same,"Flaking/scaling max score 3, number of subjects",[3],4
same,"Flaking/scaling max score 4, number of subjects",[3],0
same,"Pruritus (subject-assessed) max score 0, number of subjects",[3],2
same,"Pruritus (subject-assessed) max score 1, number of subjects",[3],4
same,"Pruritus (subject-assessed) max score 2, number of subjects",[3],1
same,"Pruritus (subject-assessed) max score 3, number of subjects",[3],1
same,"Stinging (subject-assessed) max score 0, number of subjects",[3],6
same,"Stinging (subject-assessed) max score 1, number of subjects",[3],1
same,"Stinging (subject-assessed) max score 2, number of subjects",[3],1
same,"Stinging (subject-assessed) max score 3, number of subjects",[3],0
same,"Swelling max score 0, number of subjects",[3],4
same,"Swelling max score 1, number of subjects",[3],1
same,"Swelling max score 2, number of subjects",[3],0
same,"Swelling max score 3, number of subjects",[3],3
same,"Swelling max score 4, number of subjects",[3],0
same,"Vesicles/pustules max score 0, number of subjects",[3],8
same,"Vesicles/pustules max score 1, number of subjects",[3],0
same,"Vesicles/pustules max score 2, number of subjects",[3],0
same,"Vesicles/pustules max score 3, number of subjects",[3],0
same,"Vesicles/pustules max score 4, number of subjects",[3],0
same,"Burning (subject-assessed) max score 0, number of subjects",[4],4
same,"Burning (subject-assessed) max score 1, number of subjects",[4],4
same,"Burning (subject-assessed) max score 2, number of subjects",[4],0
same,"Burning (subject-assessed) max score 3, number of subjects",[4],0
same,"Crusting max score 0, number of subjects",[4],4
same,"Crusting max score 1, number of subjects",[4],4
same,"Crusting max score 2, number of subjects",[4],0
same,"Crusting max score 3, number of subjects",[4],0
same,"Crusting max score 4, number of subjects",[4],0
same,"Erosions/ulcers max score 0, number of subjects",[4],7
same,"Erosions/ulcers max score 1, number of subjects",[4],1
same,"Erosions/ulcers max score 2, number of subjects",[4],0
same,"Erosions/ulcers max score 3, number of subjects",[4],0
same,"Erosions/ulcers max score 4, number of subjects",[4],0
same,"Erythema max score 0, number of subjects",[4],0
same,"Erythema max score 1, number of subjects",[4],2
same,"Erythema max score 2, number of subjects",[4],4
same,"Erythema max score 3, number of subjects",[4],2
same,"Erythema max score 4, number of subjects",[4],0
same,"Flaking/scaling max score 0, number of subjects",[4],0
same,"Flaking/scaling max score 1, number of subjects",[4],2
same,"Flaking/scaling max score 2, number of subjects",[4],4
same,"Flaking/scaling max score 3, number of subjects",[4],2
same,"Flaking/scaling max score 4, number of subjects",[4],0
same,"Pruritus (subject-assessed) max score 0, number of subjects",[4],0
same,"Pruritus (subject-assessed) max score 1, number of subjects",[4],4
same,"Pruritus (subject-assessed) max score 2, number of subjects",[4],4
same,"Pruritus (subject-assessed) max score 3, number of subjects",[4],0
same,"Stinging (subject-assessed) max score 0, number of subjects",[4],5
same,"Stinging (subject-assessed) max score 1, number of subjects",[4],3
same,"Stinging (subject-assessed) max score 2, number of subjects",[4],0
same,"Stinging (subject-assessed) max score 3, number of subjects",[4],0
same,"Swelling max score 0, number of subjects",[4],1
same,"Swelling max score 1, number of subjects",[4],6
same,"Swelling max score 2, number of subjects",[4],1
same,"Swelling max score 3, number of subjects",[4],0
same,"Swelling max score 4, number of subjects",[4],0
same,"Vesicles/pustules max score 0, number of subjects",[4],8
same,"Vesicles/pustules max score 1, number of subjects",[4],0
same,"Vesicles/pustules max score 2, number of subjects",[4],0
same,"Vesicles/pustules max score 3, number of subjects",[4],0
same,"Vesicles/pustules max score 4, number of subjects",[4],0
same,Severity of TEAEs,all TEAEs,mild to moderate
same,Local tolerability,all cohorts,acceptable
same,Number of TEAEs,all cohorts,10
same,Subjects reporting treatment emergent adverse events (TEAEs),all cohorts,Four of 30
same,Subjects with a vesicle or pustule,all cohorts,No subject
same,Subjects with an LSR score of 4 in any category,all cohorts,No subject
same,Subjects with LSRs as assessed by the Investigator,"all cohorts, 30 subjects",30
same,Day by which application-site symptoms resolved,"human, in vivo",≤ 45 days
same,Nature of local skin reactions,"human, in vivo",primarily mild
same,Day LSRs appeared,in general,2 days
same,Subjects with erythema and/or flaking/scaling score 1 or 2 at day 45,of 30 subjects,Fifteen
